According to ChEMBL document CHEMBL1201862, “PubChem BioAssay data set” (2004):
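Step 1: Grow cells in 96-well plates. Step 2: Expose to compound for 48 hours at 5 concentrations. Step 3: Interpolate endpoints linearly; if unreached, use highest concentration. GI50 is the concentration that inhibits growth by half.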 Calls of active or inactive are those of the source. Cut-off read from the data, not from the text of the source: active = GI50 up to about 1.1 µM and inactive = higher.

Assays:
Assay in all cases: inhibition of tumour cell growth, NCI panel, 48 h
IGROV-1 = system: IGROV-1
CCRF-CEM = system: CCRF-CEM
MDA-MB-231 = system: MDA-MB-231
K562 = system: K562
DU-145 = system: DU-145
UO-31 = system: UO-31
SK-MEL-5 = system: SK-MEL-5
SK-OV-3 = system: SK-OV-3
OVCAR-3 = system: OVCAR-3
NCI-H460 = system: NCI-H460
SNB-19 = system: SNB-19
A549 = system: A549
HCT-116 = system: HCT-116
HL-60 = system: HL-60
SW-620 = system: SW-620
RXF 393 = system: RXF 393
M14 = system: M14
KM12 = system: KM12
NCI-H23 = system: NCI-H23
KM-20L2 = system: KM-20L2

Measured: GI50

Nc1nc(SCc2ccccc2[N+](=O)[O-])c2[nH]cnc2n1
inactive: IGROV-1 > 38 µM | CCRF-CEM > 44.8 µM | MDA-MB-231 39.4 µM | K562 > 55.2 µM | DU-145 44.7 µM | UO-31 > 66.5 µM | SK-MEL-5 18.9 µM | SK-OV-3 > 71 µM | OVCAR-3 > 70.8 µM | NCI-H460 > 40.2 µM | SNB-19 > 83.2 µM | A549 > 76.6 µM | HCT-116 > 60.1 µM | HL-60 > 53.6 µM | SW-620 > 73.6 µM | RXF 393 > 62.8 µM | M14 > 53.3 µM | KM12 > 57.7 µM | NCI-H23 > 58.1 µM | KM-20L2 > 100 µM

O=C1C(Br)=C(Br)C(=O)c2ccc(=O)ccc21
inactive: IGROV-1 > 52.2 µM | CCRF-CEM 2.88 µM | MDA-MB-231 19.9 µM | K562 30.7 µM | DU-145 > 100 µM | UO-31 17.6 µM | SK-MEL-5 21 µM | SK-OV-3 > 100 µM | OVCAR-3 20.8 µM | NCI-H460 38.8 µM | SNB-19 > 100 µM | A549 70.6 µM | HCT-116 20 µM | HL-60 8.47 µM | SW-620 20.8 µM | RXF 393 19.2 µM | M14 17.9 µM | KM12 46.8 µM | NCI-H23 21.2 µM | KM-20L2 > 100 µM
